According to ChEMBL document CHEMBL3885881, “DrugMatrix”:

Organism: Rattus norvegicus
Test: DrugMatrix - Regimen: Daily Repeat
Assay type: toxicity, organism-based, Sprague-Dawley
Parameters: regimen Daily Repeat, gender Male, age 6-8 weeks
Settings: in vivo, po, 20 mg/kg, route oral GAVAGE, dose level Low, vehicle 100 % WATER; for ABSOLUTE BASOPHIL / ABSOLUTE EOSINOPHIL / ABSOLUTE LYMPHOCYTE / ABSOLUTE MONOCYTE / ABSOLUTE SEGMENTED NEUTROPHIL / BASOPHIL / EOSINOPHIL / ERYTHROCYTE COUNT / HEMATOCRIT / HEMOGLOBIN / LEUKOCYTE COUNT / LYMPHOCYTE / MEAN CORPUSCULAR HEMOGLOBIN / MEAN CORPUSCULAR HEMOGLOBIN CONCENTRATION / MEAN CORPUSCULAR VOLUME / MONOCYTE / NEUTROPHIL / NUCLEATED RED BLOOD CELLS / PLATELET COUNT: tissue Blood
[1] = 72 h, tissue Plasma, time 3 day
[2] = 120 h, tissue Plasma, time 5 day

## COCCCOc1ccnc(C[S+]([O-])c2nc3ccccc3[nH]2)c1C (stereo not given) [RABEPRAZOLE]
72 h, time 3 day
  ABSOLUTE BASOPHIL: 0 CELLS/uL
  ABSOLUTE EOSINOPHIL: 317.67 CELLS/uL
  ABSOLUTE LYMPHOCYTE: 11906.67 CELLS/uL
  ABSOLUTE MONOCYTE: 267.33 CELLS/uL
  ABSOLUTE SEGMENTED NEUTROPHIL: 875 CELLS/uL
  BASOPHIL: 0%
  EOSINOPHIL: 2.33%
  ERYTHROCYTE COUNT: 5.67 x10E6/uL
  HEMATOCRIT: 36.1%
  HEMOGLOBIN: 13.63 G/DL
  LEUKOCYTE COUNT: 13.37 x10E3/uL
  LYMPHOCYTE: 89%
  MEAN CORPUSCULAR HEMOGLOBIN: 24.07 pg
  MEAN CORPUSCULAR HEMOGLOBIN CONCENTRATION: 37.8 G/DL
  MEAN CORPUSCULAR VOLUME: 63.8 fL
  MONOCYTE: 2%
  NEUTROPHIL: 6.67%
  NUCLEATED RED BLOOD CELLS: 0 /100WBC
  PLATELET COUNT: 1283.67 x10E3/uL
[1]
  ALANINE AMINOTRANSFERASE: 42 u/L
  ALBUMIN: 4.3 G/DL
  ALKALINE PHOSPHATASE: 427.67 u/L
  ASPARTATE AMINOTRANSFERASE: 83.33 u/L
  BLOOD UREA NITROGEN: 14.33 mg/dL
  CARBON DIOXIDE: 27 mmol/L
  CHLORIDE: 105.67 MEQ/L
  CHOLESTEROL: 82.33 mg/dL
  CREATINE PHOSPHOKINASE: 491.33 u/L
  CREATININE: 0.16 mg/dL
  GLUCOSE: 161.67 mg/dL
  LACTATE DEHYDROGENASE: 92.33 u/L
  LIPASE: 9 u/L
  PHOSPHORUS: 14.1 mg/dL
  POTASSIUM: 6.68 MEQ/L
  SODIUM: 146.6 MEQ/L
  TOTAL BILIRUBIN: 0.2 mg/dL
  TOTAL PROTEIN: 5.87 G/DL
  URIC ACID: 2.2 mg/dL
120 h, time 5 day
  ABSOLUTE BASOPHIL: 0 CELLS/uL
  ABSOLUTE EOSINOPHIL: 38.67 CELLS/uL
  ABSOLUTE LYMPHOCYTE: 10652 CELLS/uL
  ABSOLUTE MONOCYTE: 120.67 CELLS/uL
  ABSOLUTE SEGMENTED NEUTROPHIL: 788.67 CELLS/uL
  BASOPHIL: 0%
  EOSINOPHIL: 0.33%
  ERYTHROCYTE COUNT: 5.6 x10E6/uL
  HEMATOCRIT: 36.27%
  HEMOGLOBIN: 13.6 G/DL
  LEUKOCYTE COUNT: 11.6 x10E3/uL
  LYMPHOCYTE: 91.67%
  MEAN CORPUSCULAR HEMOGLOBIN: 24.27 pg
  MEAN CORPUSCULAR HEMOGLOBIN CONCENTRATION: 37.5 G/DL
  MEAN CORPUSCULAR VOLUME: 64.73 fL
  MONOCYTE: 1%
  NEUTROPHIL: 7%
  NUCLEATED RED BLOOD CELLS: 0 /100WBC
  PLATELET COUNT: 1417.67 x10E3/uL
[2]
  ALANINE AMINOTRANSFERASE: 49.33 u/L
  ALBUMIN: 4.17 G/DL
  ALKALINE PHOSPHATASE: 321 u/L
  ASPARTATE AMINOTRANSFERASE: 105 u/L
  BLOOD UREA NITROGEN: 19 mg/dL
  CARBON DIOXIDE: 23 mmol/L
  CHLORIDE: 110 MEQ/L
  CHOLESTEROL: 67 mg/dL
  CREATINE PHOSPHOKINASE: 1368.67 u/L
  CREATININE: 0.21 mg/dL
  GLUCOSE: 203 mg/dL
  LACTATE DEHYDROGENASE: 225 u/L
  LIPASE: 8.67 u/L
  PHOSPHORUS: 13.93 mg/dL
  POTASSIUM: 6.05 MEQ/L
  SODIUM: 148.17 MEQ/L
  TOTAL BILIRUBIN: 0.2 mg/dL
  URIC ACID: 1.77 mg/dL
